US20030211577A1, “Novel G protein-coupled receptor, GAVE7” (priority 2001, published 2003)

Tested on: GAVE7 expression in THP-1 cells
Assay: Immune cell regulation: GAVE7 expression in PMA-differentiated THP-1 cells by Northern blot or TaqMan assay
Format: cell-based
Conditions: PMA differentiated THP-1 cells stimulated with LPS (10 μg/ml) for 4 hours and 24 hours, actin control
Protocol: THP-1 cells were obtainied from the American Type Culture Collection (Manassas, Va.) and maintained in RPMI culture medium (RPMI 1640, 100 IU/ml penicillin-streptomycin, 10% heat-inactivated fetal bovine serum) at 37° C. in a humidfied 95% air/5% CO2 tissue culture incubator. THP-1 cells were treated with 10 nM phorbol-12-myristate-13-acetate (PMA) and incubated overnight to differentiate the monocyte into an adhereent macrophage-type cell. The differentiated cells adhere, stop proliferating and express high levels of CD14. LPS activates macrophages and elicits an inflammatory response. The cells were washed once with the culture medium and grown for an additional 48 hours in the absence of PMA. The PMA differentiated cells were stimulted with or without LPS (10 μg/ml) for 4 hours and 24 hours.
The cells then were assayed for GAVE7 expression by Northern blot or TaqMan assay. Cell exposed to actin served as a control.

Lipopolysaccharide [LPS]
GAVE7 expression: down-regulated
